Assay results reported in patent publication US20070167488A1, “Novel therapeutic use” (Leo Pharma A/S, priority 2003, published 2007).
Read-outs that look alike come from different tables or passages of the source. Marks after values point to notes of the source that are not given here.

Tests used:
[1] = system: EAE induced in SJL/J mice with a peptide from myelin proteolipid protein (PLP139-153); assay: EAE model in SJL/J mice immunized with PLP139-153 peptide; type: in vivo, mouse; conditions: for Inhibition of EAE compared with the suspension vehicle group (in words): SJL/J mice, PLP139-153, doses as in tables 1 and 3; for inhibition of EAE: another experiment (data not shown)
IL-2 = assay: Inhibition of IL-2 production in phytohemagglutinin-activated human PBMCs (sandwich ELISA); type: cell-based; conditions: PBMC, approximately 46 hours, read-out: IL-2 pIC50 (converted)
Protocol: Peripheral blood mononuclear cells (PBMCs) were isolated from human blood. The lymphocytes, a fraction of the PBMCs, were activated to secrete IL-2 using the polyclonal mitogen phytohemagglutinin. The test compounds were added in concentrations from 10^−5 to 10^−10, and the cells (10^6/ml) were incubated in microtiter wells at 37° C. for approximately 46 hours.
After 46 hours the cells were centrifuged down for 25 minutes at 1000×g and the supernatants were transferred to transferred to microtiter wells precoated with a monoclonal antibody against human IL-2. The IL-2 concentration in the supernatants was determined by a sandwich ELISA. Microtiter plates were coated (1 μg/ml) with a monoclonal antibody (R&D, UK) against human IL-2, washed 4 times, blocked with 1% casein buffer for 2 hours and washed 2 times. 100 μl sample was added to each well and incubated overnight. All samples were tested in triplicate. 100 μl IL-2 standards (R&D, UK) at a concentration range of 10000-0 pg/ml were tested in triplicate. After incubation the plates were washed and incubated with biotinylated polyclonal secondary antibody against human IL-2 (R&D, UK) for 45 minutes and thereafter washed 4 times. 100 μl enzyme conjugate, horseradish peroxidase conjugated streptavidin diluted 1:4000 (Zymed, USA), was added to all wells and incubated for 30 minutes. 100 μl OPD substrate (KEM EN TEC-DK) was added and the enzyme/substrate reaction stopped after 10 minutes at room temperature with 50 μl 1 M H2SO4. The colour development (optical density—OD) was determined at 492 nm on an ELISA reader and the background OD at 620 nm subtracted).

[2] = Table 7, 50 mg/kg p.o., suspension vehicle adjusted to pH 4 by addition of aqueous HCl
[3] = Table 4, 50 mg/kg daily, treatment as in example 4
[4] = Table 3, experiment with vehicle AUC 42.75, day 0-21, 50 mg/kg i.p. daily
[5] = Exp. 1, terminated day 21, 50 mg/kg i.p. daily
[6] = Exp. 4, terminated day 35, 200 mg/kg p.o. daily
[7] = Exp. 2, terminated day 21, 5 mg/kg i.p. daily
[8] = Exp. 2, terminated day 21, 10 mg/kg i.p. daily

`COc1ccc(OC)c(/C=C2/C(=O)Nc3ccc(F)cc32)c1` [Compound 211, 3-(2,5-dimethoxy-benzylidene)-5-fluoro-1,3-dihydro-indol-2-one] was tested, and the “Inhibition (%) of EAE (area-under-curve of the disease score)” value (“Inhibition (%) of EAE” for short) [1, 2] was 37** %.

`COc1cccc(C=C2C(=O)Nc3ccccc32)c1` (racemic) [Compound 153, 3-(3-methoxy-benzylidene)-1,3-dihydro-indol-2-one] was tested, and the “Inhibition (%) of EAE” value [1, 3] was 38%.

`O=C1Nc2ccccc2C1=Cc1cc(Cl)ccc1Cl` (racemic) [Compound 193, 3-(2,5-dichloro-benzylidene)-1,3-dihydro-indol-2-one] was tested, and the “Inhibition (%) of EAE” value [1, 3] was 37%.

`COc1ccc(OC)c(/C=C2/C(=O)Nc3ccccc32)c1` [Compound 110, 3-(2,5-dimethoxy-benzylidene)-1,3-dihydro-indol-2-one] was tested, and the “Inhibition of EAE compared with the suspension vehicle group (in words)” value [1] was “clear and significant inhibition”, the “AUC (mean) of the disease score” value [1, 4] was 12.15 and the “inhibition (%)” value [1, 4] was 72%. For the same compound, the “Inhibition (%) of EAE” value ([1]; Table 7, 50 mg/kg p.o., suspension vehicle) was 47%, the “Inhibition (%) of EAE” value [1, 2] was 67** % and the “inhibition of EAE” value ([1]; 50 mg/kg, highest dose) was 90%. The “inhibition of EAE” value ([1]; lowest dose (significant at 50, 25 and 10 mg/kg; 4 mg/kg also given)) was 42%.

With `Cc1cc(C)c(/C(C(=O)O)=C2\C(=O)Nc3ccccc32)[nH]1` [Compound 229, (3,5-dimethyl-1H-pyrrol-2-yl)-(2-oxo-1,2-dihydro-indol-3-ylidene)-acetic acid] the “Inhibition (%) of EAE” value [1, 3] was 59%.

With `Cc1[nH]c(C=C2C(=O)Nc3ccccc32)c(C)c1CCC(=O)O` [Compound A, 3-[2,4-dimethyl-5-(oxo-1,2-dihydroindol-3-ylidenemethyl)-1H-pyrrol-3-yl]-propionic acid, reference compound] the “AUC (mean) of the disease score” value [1, 5] was 23.4, the “inhibition (%)” value [1, 5] was −36% and the “AUC (mean) of the disease score” value [1, 6] was 55.5. The “inhibition (%)” value [1, 6] was 11% and the “Inhibition of EAE compared with the suspension vehicle group (in words)” value [1] was “no significant inhibition”.

For `CCN(CC)CCNC(=O)c1c(C)[nH]c(/C=C2\C(=O)Nc3ccccc32)c1C` [Compound 227, 2,4-dimethyl-5-(2-oxo-1,2-dihydro-indol-3-ylidenemethyl)-1H-pyrrole-3-carboxylic acid (2-diethylamino-ethyl)-amide], the “Inhibition (%) of EAE” value [1, 3] was 49%.

With `CO[C@@H]1[C@H](OC(=O)NC(=O)CCl)CC[C@]2(CO2)[C@H]1[C@@]1(C)O[C@@H]1CC=C(C)C` [Compound B, reference compound] the “AUC (mean) of the disease score” value [1, 7] was 19.0, the “inhibition (%)” value [1, 7] was 25% and the “AUC (mean) of the disease score” value [1, 8] was 19.3. For the same compound, the “inhibition (%)” value [1, 8] was 24% and the “Inhibition of EAE compared with the suspension vehicle group (in words)” value [1] was “no significant inhibition”.

`Cc1cc(CO)[nH]c1/C=C1\C(=O)Nc2ccccc21` [Compound 03, 3-(5-hydroxymethyl-3-methyl-1H-pyrrol-2-ylmethylene)-1,3-dihydro-indol-2-one] was tested, and the “Inhibition (%) of EAE” value [1, 3] was 57%.

For `CCN(CC)CCNC(=O)c1c(C)[nH]c(/C=C2\C(=O)Nc3ccc(F)cc32)c1C` [Compound 228, 5-(5-fluoro-2-oxo-1,2-dihydro-indol-3-ylidenemethyl)-2,4-dimethyl-1H-pyrrole-3-carboxylic acid (2-diethylamino-ethyl)-amide], the “Inhibition (%) of EAE” value [1, 3] was 43%.

For `CCOC(=O)c1cc(C)c(/C=C2\C(=O)Nc3ccccc32)[nH]1` [Compound 01, 4-methyl-5-(2-oxo-1,2-dihydro-indol-3-ylidenemethyl)-1H-pyrrole-2-carboxylic acid ethyl ester], the “Inhibition (%) of EAE” value [1, 3] was 44%.

For `Cc1cc(C)c(/C=C2\C(=O)N(O)c3ccccc32)[nH]1` [Compound 45, 3-(3,5-dimethyl-1H-pyrrol-2-ylmethylene)-1-hydroxy-1,3-dihydro-indol-2-one], the “Inhibition (%) of EAE” value [1, 3] was 67%.

With `O=C(O)Cn1cc(/C=C2\C(=O)Nc3ccccc32)c2ccccc21` [Compound 26, [3-(2-oxo-1,2-dihydro-indol-3-ylidenemethyl)-indol-1-yl]-acetic acid] the “Inhibition (%) of EAE” value [1, 3] was 34%.

Compound `Cc1cc(/C=C2/C(=O)Nc3ccccc32)oc1C` has an IC50 (IL-2; Homo sapiens, 46 h) of 3.98 nM.

With `O=C1Nc2ccccc2/C1=C\c1ccc(Cl)cc1Cl` the IC50 (IL-2; Homo sapiens, 46 h) was 1 nM.

Compound `O=C1Nc2ccccc2/C1=C\c1cc(Br)co1` has an IC50 (IL-2; Homo sapiens, 46 h) of 31.6 nM.

Work on `Cc1ccc2c(/C=C3/C(=O)Nc4ccccc43)c[nH]c2c1` yielded an IC50 (IL-2; Homo sapiens, 46 h) of 0.1 nM.

With `CC(=O)ON1C(=O)/C(=C\c2[nH]c(C)cc2C)c2ccccc21` [Compound 51, acetic acid 3-(3,5-dimethyl-1H-pyrrol-2-ylmethylene)-2-oxo-2,3-dihydro-indol-1-yl ester] the “Inhibition (%) of EAE” value [1, 3] was 48%.

`Cc1cc(C)c(/C=C2\C(=O)N(O)c3ccccc32)[nH]1` [drawing 224] was tested, and the IC50 (IL-2; Homo sapiens, 46 h) was 10 nM.

`COc1ccc(OC)c(/C=C2/C(=O)Nc3ccccc32)c1` [drawing 114] showed an IC50 (IL-2; Homo sapiens, 46 h) of 3.98 nM.

In the case of `O=C1Nc2cc(Cl)ccc2/C1=C/c1c[nH]c2ccccc12`, the IC50 (IL-2; Homo sapiens, 46 h) is reported as 63.1 nM.

`O=C1Nc2ccccc2/C1=C/c1cc(Br)ccc1O` was tested, and the IC50 (IL-2; Homo sapiens, 46 h) was 20 nM.

Compound `Cc1cc(C(=O)NCC2CCCO2)[nH]c1/C=C1\C(=O)Nc2ccccc21` (stereo not shown) has an IC50 (IL-2; Homo sapiens, 46 h) of 20 nM.

Work on `COc1ccc(OC)c(/C=C2/C(=O)Nc3cc(F)ccc32)c1` yielded an IC50 (IL-2; Homo sapiens, 46 h) of 10 nM.

For `O=C1Nc2ccccc2/C1=C/c1ccc2ccccc2c1`, the IC50 (IL-2; Homo sapiens, 46 h) was 631 nM.

In the case of `O=C1Nc2ccccc2/C1=C\c1cc(Cl)cc(Cl)c1OCc1ccc2ccccc2n1`, the IC50 (IL-2; Homo sapiens, 46 h) is reported as 100 nM.

`Cc1cc(C)cc(-c2ccc(N(C)CCN(C)C)c(/C=C3\C(=O)Nc4ccccc43)c2)c1` showed an IC50 (IL-2; Homo sapiens, 46 h) of 63.1 nM.

For `O=C1Nc2ccccc2/C1=C\c1cccc(Br)c1`, the IC50 (IL-2; Homo sapiens, 46 h) was 10 nM.

For `Cc1cc(C)c(/C=C2\C(=O)Nc3cccc(C)c32)[nH]1`, the IC50 (IL-2; Homo sapiens, 46 h) was 39.8 nM.

With `Cc1cc(C(=O)NCCCc2ccccc2)[nH]c1/C=C1\C(=O)Nc2ccccc21` the IC50 (IL-2; Homo sapiens, 46 h) was 50.1 nM.

`CCOC(=O)CCn1cc(/C=C2\C(=O)Nc3ccccc32)c2ccccc21` was tested, and the IC50 (IL-2; Homo sapiens, 46 h) was 200 nM.

In the case of `CCOC(=O)CCCCCNC(=O)c1cc(C)c(/C=C2\C(=O)Nc3ccccc32)[nH]1`, the IC50 (IL-2; Homo sapiens, 46 h) is reported as 79.4 nM.

Work on `O=C1Nc2ccc(Cl)cc2/C1=C/c1c[nH]c2ccccc12` yielded an IC50 (IL-2; Homo sapiens, 46 h) of 10 nM.

With `COc1ccc(Br)cc1/C=C1/C(=O)Nc2ccccc21` the IC50 (IL-2; Homo sapiens, 46 h) was 10 nM.

`O=C1Nc2ccccc2/C1=C/c1cccc([N+](=O)[O-])c1` gave an IC50 (IL-2; Homo sapiens, 46 h) of 20 nM.

For `O=C1Nc2ccccc2/C1=C/c1ccc(Cl)c(Cl)c1`, the IC50 (IL-2; Homo sapiens, 46 h) was 20 nM.

`O=C1Nc2cc(C(F)(F)F)ccc2/C1=C/c1c[nH]c2ccccc12` showed an IC50 (IL-2; Homo sapiens, 46 h) of 20 nM.

With `Cn1c(/C=C2/C(=O)Nc3ccccc32)cc2ccccc21` the IC50 (IL-2; Homo sapiens, 46 h) was 100 nM.

With `Cc1cc(C(=O)OCc2ccccc2)[nH]c1/C=C1\C(=O)Nc2ccccc21` the IC50 (IL-2; Homo sapiens, 46 h) was 20 nM.

In the case of `Cc1[nH]c2ccccc2c1/C=C1/C(=O)Nc2ccccc21` [Compound 75, 3-(2-methyl-1H-indol-3-ylmethylene)-1,3-dihydro-indol-2-one], the “Inhibition (%) of EAE” value [1, 3] is reported as 63%.

`Cc1ccc(C)c(/C=C2/C(=O)Nc3ccccc32)c1` [Compound 104, 3-(2,5-dimethyl-benzylidene)-1,3-dihydro-indol-2-one] was tested, and the “Inhibition (%) of EAE” value [1, 3] was 71%.

Compound `COc1ccc(/C=C2/C(=O)Nc3ccccc32)c(OC)c1` has an IC50 (IL-2; Homo sapiens, 46 h) of 2 nM.

In the case of `COc1ccc(OC)c(/C=C2/C(=O)Nc3c(F)cc(F)cc32)c1`, the IC50 (IL-2; Homo sapiens, 46 h) is reported as 10 nM.

`O=C1Nc2ccc(F)c(F)c2/C1=C/c1c[nH]c2ccccc12` showed an IC50 (IL-2; Homo sapiens, 46 h) of 3.98 nM.

Compound `O=C1Nc2ccccc2/C1=C\c1cn(Cc2cnc(Cl)s2)c2ccccc12` has an IC50 (IL-2; Homo sapiens, 46 h) of 10 nM.

With `COc1ccc(F)c(/C=C2/C(=O)Nc3ccccc32)c1` the IC50 (IL-2; Homo sapiens, 46 h) was 63.1 nM.

`Cc1ccc(/C=C2\C(=O)Nc3ccccc32)cc1C` was tested, and the IC50 (IL-2; Homo sapiens, 46 h) was 50.1 nM.

`Cc1cc(C)c(/C=C2\C(=O)Nc3ccccc32)[nH]1` gave an IC50 (IL-2) of 0.2 nM.

`O=C1Nc2ccccc2/C1=C\c1c[nH]c2c(F)c(F)c(F)c(F)c12` gave an IC50 (IL-2; Homo sapiens, 46 h) of 2 nM.

`Cc1[nH]c(/C=C2\C(=O)N(O)c3ccccc32)c(C)c1Br` gave an IC50 (IL-2; Homo sapiens, 46 h) of 1 nM.

In the case of `COc1ccc(O)c(/C=C2\C(=O)Nc3ccccc32)c1`, the IC50 (IL-2; Homo sapiens, 46 h) is reported as 200 nM.

`Cc1[nH]c(/C=C2\C(=O)Nc3cccc(Cl)c32)c(C)c1CCC(=O)O` was tested, and the IC50 (IL-2; Homo sapiens, 46 h) was 50.1 nM.

`CC(C)(C)OC(=O)N1C(=O)/C(=C\c2c[nH]c3ccccc23)c2ccccc21` gave an IC50 (IL-2; Homo sapiens, 46 h) of 1 nM.

In the case of `O=C1Nc2ccccc2/C1=C\c1cc(OC(F)(F)F)ccc1O`, the IC50 (IL-2; Homo sapiens, 46 h) is reported as 63.1 nM.

`Cc1ccc(C)c(/C=C2/C(=O)Nc3ccccc32)c1` [drawing 112] was tested, and the IC50 (IL-2; Homo sapiens, 46 h) was 100 nM.

Work on `Cc1cccc(COc2ccc(/C=C3/C(=O)Nc4ccccc43)cc2)n1` yielded an IC50 (IL-2; Homo sapiens, 46 h) of 398 nM.

In the case of `O=C1Nc2ccccc2/C1=C\c1cccc(Cl)c1`, the IC50 (IL-2; Homo sapiens, 46 h) is reported as 10 nM.

`O=C1Nc2ccccc2/C1=C\c1ccc([N+](=O)[O-])s1` was tested, and the IC50 (IL-2; Homo sapiens, 46 h) was 31.6 nM.

In the case of `O=C1Nc2ccc(Cl)cc2/C1=C/c1ccccc1O`, the IC50 (IL-2; Homo sapiens, 46 h) is reported as 100 nM.
